Columns and labels:
Type in all cases: cell-based
NCI-H522 = assay: NCI 60 cell line screen (SRB), Non-Small Cell Lung Cancer
SNB-19 = assay: NCI 60 cell line screen (SRB), CNS Cancer; details: PG=0
OVCAR-5 = assay: NCI 60 cell line screen (SRB), Ovarian Cancer
BT-549 = assay: NCI 60 cell line screen (SRB), Breast Cancer
[1] = tested on: MB231/ATCC (second line of the wrapped label, with values of its own); assay: NCI 60 cell line screen (SRB), Breast Cancer
NCI-H23 = assay: NCI 60 cell line screen (SRB), Non-Small Cell Lung Cancer; details: PG=0
UACC-62 = assay: NCI 60 cell line screen (SRB), Melanoma
NCI-H322M = assay: NCI 60 cell line screen (SRB), Non-Small Cell Lung Cancer
RPMI-8226 = assay: NCI 60 cell line screen (SRB), Leukemia
PC-3 = assay: NCI 60 cell line screen (SRB), Prostate Cancer; details: PG=0
MDA-MB231/ATCC = assay: NCI 60 cell line screen (SRB), Breast Cancer; details: MDA- (first line of MDA-MB231/ATCC); PG=0
COLO 205 = assay: NCI 60 cell line screen (SRB), Colon Cancer
SR = assay: NCI 60 cell line screen (SRB), Leukemia
K-562 = assay: NCI 60 cell line screen (SRB), Leukemia
UACC-257 = assay: NCI 60 cell line screen (SRB), Melanoma; details: PG=0
MDA-MB-435 = assay: NCI 60 cell line screen (SRB), Breast Cancer
HL-60(TB) = assay: NCI 60 cell line screen (SRB), Leukemia

C[C@@H]1CC[C@H]2[C@@H](C)C(=O)O[C@@H]3O[C@]4(C)CC[C@@H]1[C@]32OO4 [Artemisinin, artemisinin]
Log10TGI (NCI-H522; PG=0): >−4.00 log10M | Log10GI50 (NCI-H522; PG=+50): >−4.00 log10M | Log10GI50 (NCI-H522; Table IV (LC50, PG=−50)): >−4.00 log10M | Log10TGI (SNB-19): >−4.00 log10M | Log10TGI (OVCAR-5; PG=0): >−4.00 log10M | Log10GI50 (OVCAR-5; PG=+50): >−4.00 log10M | Log10GI50 (OVCAR-5; Table IV (LC50, PG=−50)): >−4.00 log10M | Log10TGI (BT-549; PG=0): >−4.00 log10M | Log10GI50 (BT-549; Table IV (LC50, PG=−50)): >−4.00 log10M | Log10TGI ([1]; PG=0): >−4.00 log10M | Log10GI50 ([1]; PG=+50): >−4.00 log10M | Log10GI50 ([1]; Table IV (LC50, PG=−50)): >−4.00 log10M | Log10TGI (NCI-H23): >−4.00 log10M | Log10TGI (UACC-62; PG=0): >−4.00 log10M | Log10GI50 (UACC-62; PG=+50): >−4.00 log10M | Log10GI50 (UACC-62; Table IV (LC50, PG=−50)): >−4.00 log10M | Log10TGI (NCI-H322M; PG=0): >−4.00 log10M | Log10GI50 (NCI-H322M; PG=+50): >−4.00 log10M | Log10TGI (RPMI-8226; PG=0): >−4.00 log10M | Log10GI50 (RPMI-8226; PG=+50): >−4.00 log10M | Log10GI50 (RPMI-8226; Table IV (LC50, PG=−50)): >−4.00 log10M | Log10TGI (PC-3): −4.00 log10M | Log10TGI (MDA-MB231/ATCC): −4.00 log10M | Log10TGI (COLO 205; PG=0): >−4.00 log10M | Log10GI50 (COLO 205; PG=+50): >−4.00 log10M | Log10GI50 (COLO 205; Table IV (LC50, PG=−50)): >−4.00 log10M | Log10TGI (SR; PG=0): >−4.00 log10M | Log10GI50 (SR; PG=+50): >−4.00 log10M | Log10GI50 (SR; Table IV (LC50, PG=−50)): >−4.00 log10M | Log10TGI (K-562; PG=0): −4.00 log10M | Log10GI50 (K-562; PG=+50): −4.33 log10M | Log10GI50 (K-562; Table IV (LC50, PG=−50)): >−4.00 log10M | Log10TGI (UACC-257): >−4.00 log10M | Log10TGI (MDA-MB-435; MDA-MB-435, PG=0): >−4.00 log10M | Log10GI50 (MDA-MB-435; MDA-MB−435, PG=+50): >−4.00 log10M | Log10GI50 (MDA-MB-435; Table IV (LC50, PG=−50), MDA-MB-435): >−4.00 log10M | Log10TGI (HL-60(TB); PG=0): −4.00 log10M | Log10GI50 (HL-60(TB); PG=+50): −4.26 log10M | Log10GI50 (HL-60(TB); Table IV (LC50, PG=−50)): >−4.00 log10M
